Measurements: US5705504A, “Piperidine derivatives with PAF antagonist activity” (J. Uriach & Cia, S.A., priority 1994, dated 1998)

Legend:
[1] = test system: Platelet Aggregation Induced by PAF (platelet rich plasma); assay: Inhibition of Platelet Aggregation Induced by PAF; assay type: cell-based, male New Zealand rabbits; conditions: rabbit platelet rich plasma, aggregation induced by C18-PAF (15 nM)
Method: Inhibition of Platelet Aggregation Induced by PAF.
Platelet rich plasma (PRP) was prepared by centrifuging the blood at 250 xg for 10 min. at 4° C. The PRP was diluted with platelet-poor plasma (PPP) obtained by further centrifuging at 3000 xg for 10 min. The platelet count was adjusted to 3×10^5cells/mm^3.

PAF-induced Hypotension = assay: Inhibition of PAF-induced Hypotension in Normotensive Rats; assay type: in vivo, male Sprague-Dawley rats; conditions: anesthetized normotensive rats, i.v. 3 min. before PAF (0.5 μg/Kg), dose inhibiting hypotension by 50%; for ED50: Rattus norvegicus, iv, 0.05 h, read-out: ID50 (the source's name)
Method: Inhibition of PAF-induced Hypotension in Normotensive Rats.
Male Sprague-Dawley rats, weighing 180-220 g, were anesthetized with sodium pentobarbital (50 mg/Kg i.p.). Blood pressure was recorded from the left carotid artery using a Statham pressure transducer coupled to a Beckman R611 recorder. Right and left fernoral veins were catheterized to inject test compounds and PAF (0.5 μg/Kg). Test compounds were administered by intravenous injection (1 mL/Kg, dissolved in saline) 3 min. before PAF. Blood pressure was monitored and percent inhibition of PAF-induced hypotension with respect to controls was calculated.

Compound | IC50 ([1]; Oryctolagus cuniculus) [nM] | ED50 (PAF-induced Hypotension) [mg/kg] | ID50 (PAF-induced Hypotension) [mg/kg] | IC50 [1] [nM]
Cc1nc2cnccc2n1CC1CCN(C(=O)C=C(c2ccccc2)c2ccc([N+](=O)[O-])cc2)CC1 [Compound 16, cis and trans-1-[[1-[3-(4-Nitrophenyl)-3-phenylpropenoyl]-4-piperidyl]methyl]-1H-2-methylimidazo[4,5-c]pyridine] | 9.2 | – | – | –
Cc1nc2cnccc2n1CC1CCN(C(=O)CC(C)c2ccccc2)CC1 (stereo not drawn) [Compound 40, 1-[[1-(3-Phenylbutanoyl)-4-piperidyl]methyl]-1H-2-methylimidazo[4,5-c]pyridine] | 12 | 0.033 | – | –
Cc1nc2cnccc2n1CC1CCN(C(=O)CC(C)(C)c2ccccc2)CC1 [Compound 41, 1-[[1-(3-Methyl-3-phenylbutanoyl)-4-piperidyl]methyl]-1H-2-methylimidazo[4,5-c]pyridine] | 6.7 | 0.012 | – | –
CCOC(=O)[C@@H](NC(=O)N1CCC(Cn2c(C)nc3cnccc32)CC1)c1ccccc1 [Compound 39, (S)-1-[[1-[[N-(1-Ethoxycarbonyl-1-phenylmethyl)amino]carbonyl]-4-piperidyl]methyl]-1H-2-methylimidazo[4,5-c]pyridine] | 16 | – | – | –
CCCC(CC(=O)N1CCC(Cn2c(C)nc3cnccc32)CC1)c1ccccc1 (stereo not drawn) [Compound 32, 1-[[1-(3-Phenylhexanoyl)-4-piperidyl]methyl]-1H-2-methylimidazo[4,5-c]pyridine] | 11 | 0.0079 | – | –
Cc1nc2cnccc2n1CC1CCN(C(=O)OCC2(c3ccccc3)CC2)CC1 [Compound 70, 1-[[1-[[(1-Phenyl-1-cyclopropyl)methoxy]carbonyl]-4-piperidyl]methyl]-1H-2-methylimidazo[4,5-c]pyridine] | 34 | 0.014 | – | –
Cc1nc2cnccc2n1CC1CCN(C(=O)CC(C)(C)c2ccc(N)cc2)CC1 [Compound 44, 1-[[1-[3-(4-Aminophenyl)-3-methylbutanoyl]-4-piperidyl]methyl]-1H-2-methylimidazo[4,5-c]pyridine] | 19 | – | – | –
Cc1nc2cnccc2n1CC1CCN(C(=O)NC2(c3ccccc3)CC2)CC1 [Compound 59, 1-[[1-[(1-Phenyl-1-cyclopropylamino)carbonyl]-4-piperidyl]methyl]-1H-2-methylimidazo[4,5-c]pyridine] | 17 | 0.021 | – | –
Cc1nc2cnccc2n1CC1CCN(C(=O)CC(O)(c2ccccc2)C(F)(F)F)CC1 (stereo not drawn) [Compound 47] | 36 | 0.013 | – | –
Cc1nc2cnccc2n1CC1CCN(S(=O)(=O)CC(C)(C)c2ccccc2)CC1 [Compound 61, 1-[[1-[(2-Methyl-2-phenylpropyl)sulfonyl]-4-piperidyl]methyl]-1H-2-methylimidazo[4,5-c]pyridine] | 6.2 | – | – | –
Cc1nc2cnccc2n1CC1CCN(C(=O)C=C(c2ccccc2)c2cccc(N)c2)CC1 [Compound 30, cis and trans-1-[[1-[3-(3-Aminophenyl)-3-phenylpropenoyl]-4-piperidyl]methyl]-1H-2-methylimidazo[4,5-c]pyridine] | – | 0.015 | – | –
Cc1nc2cnccc2n1CC1CCN(C(=O)/C=C(/c2ccccc2)c2ccc(N)cc2)CC1 [Compound 17a, cis-1-[[1-[3-(4-Aminophenyl)-3-phenylpropenoyl]-4-piperidyl]methyl]-1H-2-methylimidazo[4,5-c]pyridine] | – | – | 0.029 | 18
Cc1nc2cnccc2n1CC1CCN(C(=O)CC(C)c2ccc(N)cc2)CC1 (stereo not drawn) [Compound 23, 1-[[1-[3-(4-Aminophenyl)butanoyl]-4-piperidyl]methyl]-1H-2-methylimidazo[4,5-c]pyridine] | 11 | – | – | –
CCOC[C@@H](NC(=O)N1CCC(Cn2c(C)nc3cnccc32)CC1)c1ccccc1 [Compound 60, (S)-1-[[1-[(2-Ethoxy-1-phenylethylamino)carbonyl]-4opiperidyl]methyl]-1H-2-methylimidazo[4,5-c]pyridine] | 17 | 0.019 | – | –
Cc1nc2cnccc2n1CC1CCN(C(=O)CC(C)(O)c2ccccc2)CC1 (stereo not drawn) [Compound 21, 1-[[1-(3-Hydroxy-3-phenylbutanoyl)-4-piperidyl]methyl]-1H-2-methylimidazo[4,5-c]pyridine] | 6.9 | 0.043 | – | –
Cc1nc2cnccc2n1CC1CCN(C(=O)/C=C(\c2ccccc2)c2ccc(N)cc2)CC1 [Compound 17b, trans-1-[[1-[3-(4-Aminophenyl)-3-phenylpropenoyl]-4-piperidyl]methyl]-1H-2-methylimidazo[4,5-c]pyridine] | – | – | 0.01 to 0.025 | 5
Cc1nc2cnccc2n1CC1CCN(C(=O)CC(c2ccccc2)c2ccccc2)CC1 [Compound 1, 1-[[1-(3,3-Diphenylpropionyl)-4-piperidyl]methyl]-1H-2-methylimidazo[4,5-c]pyridine] | 7.6 | 0.0086 | – | –
Cc1nc2cnccc2n1CC1CCN(C(=O)N[C@H](C)c2ccccc2)CC1 [Compound 50, (R)-1-[[1-[(1-Phenylethylamino)carbonyl]-4-piperidyl]methyl]-1H-2-methylimidazo[4,5-c]pyridine] | 13 | 0.017 | – | –
